From patent US10130590B2, “Methods of treating cancer with atovaquone-related compounds” (DANA-FARBER CANCER INSTITUTE, INC., priority 2013, dated 2018) come the findings set out here.

The test system of assay [1] is malignant hematological cell lines that lack STAT3 activation. The assay is described as follows: Cell viability of hematologic cancer cells lacking STAT3 activation. Particulars: 72 hours. It counts as cell-based. The procedure: Western blotting was performed as previously described (Battle T E, Arbiser J, & Frank D A (2005) The natural product honokiol induces caspase dependent apoptosis in B-cell chronic lymphocytic leukemia (B-CLL) cells. Blood 106(2):690-697). Antibodies to phospho-MAPK (9101), total MAPK (9102), phospho-Y705 STAT3 (9131), phospho-S6 (2215), total S6 (2217), phospho-4E-BP1 (9451), total 4E-BP1 (9644), total RSK (9355), phospho-S6K (9234, 85 used at 1:5000), total S6K (2708), phospho-eIF2α (9721, used at 1:1000), total eIF2α (5324), ATF4 (11815, used at 1:1000), PDGFRβ (3169), IGF1Rβ (9750), EGFR (2232), and HER2 (2242) were from Cell Signaling Technology. Phospho-RSK antibody was from R&D (AF889). Antibodies to total STAT3 (sc-482) and gp130 (sc-656, used at 1:1000) were from Santa Cruz Biotechnology. Phospho-S727 STAT3 antibody was described previously (229). REDD1 antibody was from Proteintech (10638-1-AP, used at 1:1000). Antibody recognizing full-length and cleaved ATF6 was from Abcam (ab122897, used at 1:1000). Antibodies to tubulin (T5168) and beta actin (A5316) were from Sigma. All antibodies were used at 1:10000 dilution for western blot unless otherwise noted. […] Cell viability was measured as ATP-dependent luminescence by Cell Titer Glo (Promega). […]

The subject of assay [2] is eIF2α/ATF4 pathway. The assay is described as follows: Western blot / qRT-PCR of phospho-eIF2α/ATF4 pathway. Format: cell-based. The procedure: Western blotting was performed as previously described (Battle T E, Arbiser J, & Frank D A (2005) The natural product honokiol induces caspase dependent apoptosis in B-cell chronic lymphocytic leukemia (B-CLL) cells. Blood 106(2):690-697). Antibodies to phospho-MAPK (9101), total MAPK (9102), phospho-Y705 STAT3 (9131), phospho-S6 (2215), total S6 (2217), phospho-4E-BP1 (9451), total 4E-BP1 (9644), total RSK (9355), phospho-S6K (9234, 85 used at 1:5000), total S6K (2708), phospho-eIF2α (9721, used at 1:1000), total eIF2α (5324), ATF4 (11815, used at 1:1000), PDGFRβ (3169), IGF1Rβ (9750), EGFR (2232), and HER2 (2242) were from Cell Signaling Technology. Phospho-RSK antibody was from R&D (AF889). Antibodies to total STAT3 (sc-482) and gp130 (sc-656, used at 1:1000) were from Santa Cruz Biotechnology. Phospho-S727 STAT3 antibody was described previously (229). REDD1 antibody was from Proteintech (10638-1-AP, used at 1:1000). Antibody recognizing full-length and cleaved ATF6 was from Abcam (ab122897, used at 1:1000). Antibodies to tubulin (T5168) and beta actin (A5316) were from Sigma. All antibodies were used at 1:10000 dilution for western blot unless otherwise noted. For immunoprecipitations, cells were lysed in 500 μl lysis buffer (0.5% NP-40, 150 mM NaCl, 50 mM Tris pH 7.5, with protease and phosphatase inhibitors freshly added at 1:100 [Pierce, PI78443]) on ice for 15 minutes, then centrifuged for 10 minutes at 14,000 RPM and 4° C. The supernatant was transferred to a new tube and incubated with 10 μl JAK2 antibody (Santa Cruz sc-278) or a mix of two TYK2 antibodies, 10 μl of each (Santa Cruz sc-5271 and Cell Signaling Technology 9312). Immunoprecipitation was performed overnight at 4° C. with rotation. The next day, 75 μl of protein A/G beads (Santa Cruz sc-2003) were washed twice in lysis buffer, then incubated with immunoprecipitates overnight as before. The next day, the beads were spun down (1 min. at 7,500 RPM and 4° C.) and washed 3 times with 650 μl lysis buffer for 10 minutes at 4° C. with rotation, then boiled in 50 μl sample buffer+10% β-mercaptoethanol. For Western blot, 20 μl were loaded per lane. For detection of phospho-tyrosine, a mixture of two pan-phospho-tyrosine antibodies (Cell Signaling Technology 9411 and 9416, 1:1000 of each) was used. Antibody to phospho-Y1007/1008 JAK2 was from Cell Signaling 86 Technology (3771, used at 1:1000). Antibody to phospho-Y570 JAK2 was from Millipore (09-241, used at 1:1000). Luminometric Assays Luciferase reporter cell lines were described previously (186). Firefly luciferase values were normalized by concurrent cell viability. Cell viability was measured as ATP-dependent luminescence by Cell Titer Glo (Promega).
In asking how atovaquone induces REDD1, a possible role for ATF4, which regulates REDD1 expression was considered. ATF4 is regulated mainly at the level of translation and is induced upon phosphorylation of eIF2α. […] K562 and AML2 cells, which lack STAT3 activation, were treated with rapamycin for 72 hours. […] For these reasons, it was hypothesized that atovaquone induces eIF2α phosphorylation, with a resulting increase in ATF4 protein and signaling. U266, K562, and SKBR3 cells were treated with atovaquone (20, 20, 25 μM respectively). […] The phospho-eIF2α/ATF4 pathway represents one branch of the UPR, whose other branches consist of ATF6 cleavage and IRE1-mediated XBP1 splicing. […] Thus, atovaquone selectively activates the phospho-eIF2α/ATF4 branch of the UPR. […]
A general note: In western blotting, separated proteins are transferred to a membrane and probed.

The subject of assay [3] is STAT5. The experiment in a line: STAT5 cell-based luciferase reporter system. The procedure:
To determine if atovaquone inhibits STAT3, it was tested in a cell-based reporter system of STAT3 transcriptional activity (Nelson E A, et al. (2008) Nifuroxazide inhibits survival of multiple myeloma cells by directly inhibiting STAT3. Blood 112(13):5095-5102). These cells lack basal STAT3 activation; upon IL-6 treatment, STAT3 becomes activated and drives transcription of a STAT3-dependent luciferase reporter gene. The STAT3-luc reporter cells were pre-treated with drug for 1 hour, then stimulated with IL-6 (10 ng/ml) for 5 hr. Activity of firefly luciferase was measured and normalized by cell viability (Cell Titer Glo). […] To determine if atovaquone inhibits STAT3 activity specifically over other transcription factors, it was tested in cell-based reporter systems for STAT1 and STAT5, two other STAT family members, and NF-κB, an unrelated transcription factor.
On the technique in general: In a reporter assay the amount or activity of a reporter protein is the signal.

The mark [4] stands for this setting: U266, K562, SKBR3, 20, 20, 25 μM.

With `O=C1C(O)=C([C@H]2CC[C@H](c3ccc(Cl)cc3)CC2)C(=O)c2ccccc21` [atovaquone, trans-2-[4-(4-chlorophenyl)cyclohexyl]-3-hydroxy-1,4-naphthalenedione], in assay [1], the “viability of malignant hematological cell lines that lack STAT3 activation” value was “reduced the viability”. Besides, in assay [2], the CHAC1 expression entry was “consistently upregulated” and the CHOP expression result is “strongly upregulates CHOP”. Further, the “expression of ATF4 mRNA” value in assay [2] (U266, 15 μM, 2 hours) is given as “unchanged”. For the same molecule, in assay [2] (setting [4]), the ATF4 protein levels entry is given as “increased ATF4 protein levels” and the eIF2α phosphorylation result was “induced eIF2α phosphorylation”. Moreover, in assay [3], the “STAT5 transcription factor activity” value is recorded as “modestly affected at the higher doses”.
